Where two headings read alike, the source gives them in different places.
How the values were obtained:
lymphoma cell = details: previous studies; cited from earlier work
[1] = test system: L5178y mouse lymphoma cells; experiment: L5178y cell growth; assay type: cell-based; details: 72 hours
Protocol: mouse lymphoma cells were grown in roller tube cultures in Eagle's minimum essential medium, supplemented with 10% horse serum (Muller et al., Cancer Res. 39: 1102-1107; 1979 and Muller et al. Cancer Res. 45: 4822-4826; 1985). […] The cell growth was determined by cell count with a computer supported cell-counter (128-channel counter; Cytocomp, system Michaelis: BIOTRON-Medizinelektronik, Mainz; West Germany). The ED50 (±SD) was estimated by logit regression (L. Sachs, […], Springer-Verlag, Berlin 1984). The mathematical evaluation of the fractional inhibitory concentration indices (FIC indices) of Avarol/Avarone-DDC combinations was performed according to published equations and experimental conditions (Muller et al., Cancer Lett. 1: 127-132; 1976; and Phillips et al., Antimicrob. Agents Chemother. 9: 736-740, 1976). […] In this set of experiments, […] cells were incubated with Avarol in the absence or presence of the established SODase inhibitor DDC.

Lethal dose in rats = details: rat, in vivo; male Sprague-Dawley rats, treatment for 5 days; read-out: 50% lethal dose
Protocol: From previous experiments with NMRI mice, bearing L5178y cells, it is known that the chemotherapeutical dose of avarol is in the range of 1-50 mg/kg at a 50% lethal dose of 269.1 mg/kg (Muller et al., Cancer Res. 45: 4822-4826; 1985). The 50% lethal dose (treatment for 5 days) for male Sprague-Dawley rats was determined to be 235.7 mg/kg. Therefore, daily doses of avarol of 1-30 mg/kg/injection were chosen for the following in vivo studies.

[2] = test system: Interferon gamma production by peripheral human lymphocytes; experiment: Interferon-gamma production by human lymphocytes (buffy coat cells), EIA; assay type: cell-based
Protocol: It is therefore advantageous that an anti-AIDS chemotherapeutic agent is provided with the ability to induce gamma Interferon in T-lymphocytes. […] The experiments were performed in vitro, using peripheral human lymphocytes (buffy coat cells) in culture.
Buffy coat cells were prepared by centrifugation on Ficoll-Plaque gradient and washed two times. Subsequently the cells were divided and adjusted to a concentration of 5×1,000,000 cells/ml.
Levels of Interferon were defined by an Enzymeimmunoassay (EIA). Interferon gamma: 96 well flat bottom plates (Greiner, Neurtingen) were coated with a monoclonal antibody recognizing Interferon gamma. 200 μl of the supernatant sample were added per well together with Interferon gamma-peroxidase coupled (50 μl), consisting of the same antibody as used for coating. […] The enzymatic reaction is completed by a preparation containing hydrogen peroxide substrate. The reaction is stopped within 15 minutes by 100 μl of sulfuric acid per well. The amount of Interferon is defined by comparing the extinction of the test sample with a standard curve produced by known values of Interferon gamma.

HTLV-III p24 = assay type: cell-based; details: for Expression of p24 (in %): none = 100
normal B-lymphocytes = details: cited from earlier work
male NMRI mice = details: cited from earlier work
[3] = test system: plaque forming cells in the spleen of mice; experiment: Jerne plaque test, plaque forming cells in spleen of SRBC-immunized mice; assay type: in vivo, mouse; details: for Plaque forming cells per 10^6 cells: 30 mg/kg i.p.
Protocol: Concerning the functional consequences of the compound onto B-cells in vitro, I found (previous section) that both the IgG and the IgM secretion is stimulated in cultures of human lymphoid cells (unseparated) which are treated with non-cytostatic concentrations of avarol. This finding is supported by the results of the Jerne plaque test.
The plaque test of Jerne and Nordin (Science 140: 405-406, 1963) was used with the modification given by Cunningham and Szenberg (Immunolog. 14: 599-601; 1968). Briefly, 8 male NMRI mice per group (20-22 g) were immunized on day 0 by i.p. injection of 5×10^8 SRBC in 0.5 ml saline. Treatment with avarol was done i.p. either from day 0 to day +4 or from day -4 to day 0. One hour after the last drug administration, the animals were killed by a blow on the head and bled. The spleens were removed and a single cell suspension was prepared by teasing the pooled spleens through a 120-μm mesh sieve. After lysing the erythrocytes by 0.15M NH4 Cl, the cells were washed twice in Hank's balanced salt solution containing 29 ml of 7.5% NaHCO3 and 10 ml of 1M HEPES buffer solution per one liter. The cells were resuspended in 2 ml per spleen. Six Cunningham chambers per group were filled with a mixture of 0.5 ml of a suitable dilution of spleen cells (generally 1:100), 0.5 ml of a suspension of SRBC (10^9 /ml) and 125 μl of normal guinea pig complement. After 90-120 min of incubation at 37° C., the number of plaques was counted. Plaques per spleen or per 10^6 spleen cells were calculated.

[4] = assay type: in vivo, rat; details: for Percentage of Radioactivity in Blood: rat

CC1=CCC[C@H]2[C@](C)(Cc3cc(O)ccc3O)[C@@H](C)CC[C@]12C [Avarol, 2-[(1R)-1,2,3,4,4a,7,8,8aα-octahydro-1β,2β,4aβ,5-tetramethyl-1-naphthylmethyl]-1,4-benzenediol]
concentration inhibiting lymphoma cell growth by 50% (lymphoma cell): 0.3 to 0.4 µg/mL | sensitivity of T-cell derived leukemia cells vs normal T- or B-lymphocytes (lymphoma cell): more sensitively inhibited | IC50 ([1]; DDC 1.46 μM, read-out: ED50 with coaddition of DDC): 270 ± 40 nM | IC50 ([1]; DDC 1.71 μM, read-out: ED50 with coaddition of DDC): 108 ± 15 nM | IC50 ([1]; Mus musculus, L5178Y, cell growth, absence of DDC, read-out: ED50 (the source's name)): 940 ± 140 nM | LD50 at 120 h (Lethal dose in rats): 236 mg/kg | Titer of Interferon-gamma ([2]; 0.2 μg/ml, 0 hours, untreated 2): 4 Units/ml of supernatant | Titer of Interferon-gamma ([2]; 0.2 μg/ml, 24 hours, untreated 5): 17 Units/ml of supernatant | Titer of Interferon-gamma ([2]; 0.2 μg/ml, 48 hours, untreated 3): 24 Units/ml of supernatant | Titer of Interferon-gamma ([2]; 0.2 μg/ml, 72 hours, untreated 7): 26 Units/ml of supernatant | Titer of Interferon-gamma ([2]; 0.2 μg/ml, 96 hours, untreated 4): 21 Units/ml of supernatant | Titer of Interferon-gamma ([2]; 0.5 μg/ml, 0 hours, untreated 2): 4 Units/ml of supernatant | Titer of Interferon-gamma ([2]; 0.5 μg/ml, 24 hours, untreated 5): 23 Units/ml of supernatant | Titer of Interferon-gamma ([2]; 0.5 μg/ml, 48 hours, untreated 3): 74 Units/ml of supernatant | Titer of Interferon-gamma ([2]; 0.5 μg/ml, 72 hours, untreated 7): 89 Units/ml of supernatant | Titer of Interferon-gamma ([2]; 0.5 μg/ml, 96 hours, untreated 4): 118 Units/ml of supernatant | Titer of Interferon-gamma ([2]; 1.0 μg/ml, 0 hours, untreated 2): 3 Units/ml of supernatant | Titer of Interferon-gamma ([2]; 1.0 μg/ml, 24 hours, untreated 5): 20 Units/ml of supernatant | Titer of Interferon-gamma ([2]; 1.0 μg/ml, 48 hours, untreated 3): 52 Units/ml of supernatant | Titer of Interferon-gamma ([2]; 1.0 μg/ml, 72 hours, untreated 7): 62 Units/ml of supernatant | Titer of Interferon-gamma ([2]; 1.0 μg/ml, 96 hours, untreated 4): 73 Units/ml of supernatant | optimal dose for Interferon gamma induction ([2]; in vitro): 0.5 µg/mL | Expression of p24 (in %) (HTLV-III p24; 0.1 μg/ml): 28% | Expression of p24 (in %) (HTLV-III p24; 1 μg/ml): 14% | Expression of p24 (in %) (HTLV-III p24; 5 μg/ml): 14% | expression of HTLV-III protein p24, in words (HTLV-III p24; H9-HTLV-III cells): significant reduction | concentration inhibiting [^3 H] dThd-incorporation rate by 50% (normal B-lymphocytes): 1.6 to 1.9 µg/mL | 50% lethal dose (male NMRI mice; NMRI mice, previous experiments): 269.1 mg/kg | Acute toxicity LD10 (male NMRI mice; male NMRI mice, acute): 156.4 mg compound/kg | Subacute toxicity LD10 (male NMRI mice; male NMRI mice, subacute): 138.6 mg compound/kg | Subacute toxicity LD50 (male NMRI mice; male NMRI mice, subacute): 218.4 mg compound/kg | Plaque forming cells per 10^6 cells ([3]; from 0 to +4 days, untreated 2,782): 3,316 | Plaque forming cells per 10^6 cells ([3]; from -4 to 0 days, untreated 2,259): 2,202 | higher number of plaque forming cells/spleen ([3]; 30 mg/kg, day 0 to day +4): 28% | increase of plaque forming cells/spleen ([3]; 30 mg/kg, day -4 to day 0): 21% | Percentage of Radioactivity in Blood ([4]; i.v. 10 mg/kg, 1 hour, 100% = 10 minutes after injection): 96% | Percentage of Radioactivity in Blood ([4]; i.v. 10 mg/kg, 6 hours, 100% = 10 minutes after injection): 88% | Percentage of Radioactivity in Blood ([4]; i.v. 10 mg/kg, 12 hours, 100% = 10 minutes after injection): 72% | Percentage of Radioactivity in Blood ([4]; i.v. 10 mg/kg, 24 hours, 100% = 10 minutes after injection): 43% | Percentage of Radioactivity in Blood ([4]; i.v. 10 mg/kg, 48 hours, 100% = 10 minutes after injection): 26% | Percentage of Radioactivity in Blood ([4]; i.v. 20 mg/kg, 1 hour, 100% = 10 minutes after injection): 92% | Percentage of Radioactivity in Blood ([4]; i.v. 20 mg/kg, 12 hours, 100% = 10 minutes after injection): 75% | Percentage of Radioactivity in Blood ([4]; i.v. 20 mg/kg, 24 hours, 100% = 10 minutes after injection): 39% | Percentage of Radioactivity in Blood ([4]; i.v. 20 mg/kg, 48 hours, 100% = 10 minutes after injection): 21% | Percentage of Radioactivity in Blood ([4]; in vivo, iv, 20 mg/kg): 83 | half-life ([4]; rats, i.v.): approximately 22 hours
